Data reported in BindingDB's records for doi:10.1016/S0960-894X(00)80241-3 (1991).

Test: Inhibition of [14C]arachidonic acid conversion to 5-HETE by broken cell 5-lipoxygenase in vitro (guinea pig PMN)
O=C(O)c1ccc2c(c1)Nc1ccccc1O2 [10H-Phenoxazine-2-carboxylic acid] gave an IC50 of 4600 nM. COC(=O)c1cccc2c1Nc1ccccc1O2 [10H-Phenoxazine-1-carboxylic acid methyl ester] gave an IC50 of 770 nM. Work on O=C(O)c1cccc2c1Nc1ccccc1O2 [10H-Phenoxazine-1-carboxylic acid] yielded an IC50 of 610 nM. Compound c1ccc2c(c1)Nc1ccccc1O2 [10H-Phenoxazine] has an IC50 of 20 nM. CCOC(=O)/C=C/c1ccc2c(c1)Nc1ccccc1O2 [(E)-3-(10H-Phenoxazin-2-yl)-acrylic acid ethyl ester] showed an IC50 of 35 nM. In the case of COC(=O)c1ccc2c(c1)Nc1ccccc1O2 [10H-Phenoxazine-2-carboxylic acid methyl ester], the IC50 is reported as 65 nM. CN(O)C(=O)c1ccc2c(c1)Nc1ccccc1O2 [10H-Phenoxazine-2-carboxylic acid hydroxy-methyl-amide] gave an IC50 of 87 nM. Compound COc1ccc2c(c1C(=O)NO)Nc1ccccc1O2 [2-Methoxy-10H-phenoxazine-1-carboxylic acid hydroxyamide] has an IC50 of 420 nM. For O=C(O)/C=C/c1ccc2c(c1)Nc1ccccc1O2 [(E)-3-(10H-Phenoxazin-2-yl)-acrylic acid], the IC50 was 1200 nM. Work on CN(O)C(=O)/C=C/c1ccc2c(c1)Nc1ccccc1O2 [(E)-N-Hydroxy-N-methyl-3-(10H-phenoxazin-2-yl)-acrylamide] yielded an IC50 of 85 nM.
